Reference: PMC10288505, “Photoswitchable Calixarene Activators for Controlled Peptide Transport across Lipid Membranes” (Journal of the American Chemical Society, 2023)

Key:
R4 = test: Indicator displacement assay with host:LCG reporter pair, guest R4; format: binding; details: association constant, competitive dye displacement with LCG, 5 mM phosphate buffer pH 7.3, mean ± SD of triplicate
Excerpt: The binding affinity of the anionic calixarene activators toward cationic peptides was investigated using a small library of highly hydrophilic oligoarginines, from 3 to 8 residues. These peptides are not able to spontaneously transverse zwitterionic artificial membranes in vesicle assays, which allows the accurate evaluation of the calixarenes 1 and 2 as counterion activators without interferences from the transport of the peptide alone.[43]−[45] First, the formation of host–guest complexes between 1/2 and the selected peptides was verified by indicator displacement assays using lucigenin (LCG) as the fluorescent indicator.[46] As previously reported for other sulfonatocalixarene derivatives,[46] the formation of host–guest binding pairs between calixarenes 1/2 in the E- and Z-forms and LCG results in significant static fluorescence quenching (see Figure 2A and Figures S26 and S27). Quantitative analysis of the fluorescence titration data using a 1:1 host:guest binding model allows the determination of the respective binding constants (K) reported in Table 1. As can be observed, both 1/2 display high affinity for the LCG dye, on the 10^7 M^–1 range, which seems to be independent of the nature and conformation of the azobenzene arm. […] The host:LCG binding pairs were then employed in the above-mentioned indicator displacement assays to investigate the binding affinity of oligoarginines toward 1 and 2 (see Figure 2B and Figures S29–S33).
The binding affinities of the counterion activators and peptide complexes were analyzed by indicator displacement assays. The fluorescent dye chosen for these experiments was lucigenin (LCG) due to its complex with the receptor SC4 being well characterized and due to the high variation of emission between its bound and free form. Firstly, the affinity for LCG was calculated for each of the activators, by titrations followed by fluorescence spectroscopy leading to almost full quenching of the emission. For the competitive assays, a concentration of LCG and activator was chosen in order to have approximately 90% of complexed dye and that mixture was then titrated with each of the peptides, leading to the regaining of emission when LCG was release from the complex.
Figure S26 - Fluorescence titration of the lucigenin dye with increasing concentrations of A) E-1 and B) Z–1 in water (5 mM phosphate buffer pH 7.3). LCG concentration was fixed 0.2 µM in all experiments, except for the first E-1 titrations were [LCG]
(1 picture or pasted object on this page, not shown here)
Figure S29 - Indicator displacement titration of the several oligoarginines A) R3 B) R4 C) R6 and D) R8, using SC4:LCG as the reporter pair (5 mM phosphate buffer pH 7.3). LCG and SC4 concentrations were fixed at A) 0.22 and 0.50 µM, for all three replicates, B) 0.22 and 4.7 µM for the first titration and 0.22 and 4.3 µM for the remaining two replicates, C) 0.22 and 0.45 µM and 1.1 and 0.85 µM and D) 0.28 and 0.43 µM and 1.1 and 0.85 µM, respectively, from left to right.
Figure S30 - Indicator displacement titration of the several oligoarginines A) R3 B) R4 C) R6 and D) R8, using E-1:LCG as the reporter pair (5 mM phosphate buffer pH 7.3) LCG and E-1 concentrations were fixed at A) 0.11 and 0.25 µM, for all three replicates, B) 0.22 and 0.5 µM, for the first two titrations and 0.22 and 0.23 µM for the remaining replicate, C) 4.0 and 3.8 µM and 0.22 and 0.5 µM, D) 4 and 3 µM and 0.22 and 0.5 µM, respectively, from left to right. […]

[1] = Photochemical characterisation (UV–vis absorption, 1H NMR) and thermal Z→E isomerization; format: physicochemical; details: for Thermal stability of the Z isomer: room temperature, time frame of the experiments; for Fraction of E isomer in the photostationary state (PSS): irradiation of the Z-forms at 500 nm
Excerpt: The photochromic properties of 1 and 2 were investigated in diluted aqueous solution by UV–vis absorption spectroscopy and in CD3OD by ^1H NMR.
On the other hand, irradiation of the Z-forms at λirr = 500 nm originates a photostationary state (PSS) composed of 70 and 80% of E-1 (Φ1Z → E = 0.6) and E-2 (Φ2Z → E = 0.5), respectively (Figure 1 and Figure S23). As generally observed for other azobenzene photoswitches,[42] the E isomers can be quantitatively recovered in the dark through the thermal Z → E isomerization, with 1 and 2 presenting activation energies of 215 and 93 kJ/mol, respectively (Figures S24 and S25).

| Structure (SMILES) | Apparent affinity constant K for R4 (R4) | Thermal stability of the Z isomer [1] | Fraction of E isomer in the photostationary state (PSS) [1] |
| --- | --- | --- | --- |
| O=S(=O)([O-])c1cc2c(O)c(c1)Cc1cc(S(=O)(=O)[O-])cc(c1O)Cc1cc(S(=O)(=O)[O-])cc(c1OCCCCCCOc1ccc(/N=N\c3ccccc3)cc1)Cc1cc(S(=O)(=O)[O-])cc(c1O)C2.[Li+].[Li+].[Li+].[Li+] [Z-1] | (3.2 ± 0.7) × 10^7 M^–1 | minimal thermal interconversion at room temperature |  |
| CCCCc1ccc(/N=N/c2ccc(OCCCOc3c4cc(S(=O)(=O)[O-])cc3Cc3cc(S(=O)(=O)[O-])cc(c3O)Cc3cc(S(=O)(=O)[O-])cc(c3O)Cc3cc(S(=O)(=O)[O-])cc(c3O)C4)cc2)cc1.[Li+].[Li+].[Li+].[Li+] [E-2] | (1.2 ± 0.6) × 10^8 M^–1 |  | 80% |
| CCCCc1ccc(/N=N\c2ccc(OCCCOc3c4cc(S(=O)(=O)[O-])cc3Cc3cc(S(=O)(=O)[O-])cc(c3O)Cc3cc(S(=O)(=O)[O-])cc(c3O)Cc3cc(S(=O)(=O)[O-])cc(c3O)C4)cc2)cc1.[Li+].[Li+].[Li+].[Li+] [Z-2] | (7.8 ± 1.3) × 10^7 M^–1 | minimal thermal interconversion at room temperature |  |
| O=S(=O)([O-])c1cc2c(O)c(c1)Cc1cc(S(=O)(=O)[O-])cc(c1O)Cc1cc(S(=O)(=O)[O-])cc(c1OCCCCCCOc1ccc(/N=N/c3ccccc3)cc1)Cc1cc(S(=O)(=O)[O-])cc(c1O)C2.[Li+].[Li+].[Li+].[Li+] [E-1] | (3.9 ± 0.3) × 10^7 M^–1 |  | 70% |
